In ChEMBL document CHEMBL3885861, “Open TG-GATES”:

Species on record: Rattus norvegicus
Assay: Open TG-GATES - Regimen: Daily Repeat
Format: toxicity, organism-based, Sprague-Dawley
Design: regimen Daily Repeat, gender Male, age 6 weeks
Conditions: in vivo, po, route gavage; for APTT / Bas / Eos / Fbg / Ht / Lym / MCHC / MCV / Mono / PT / Plat / RBC / Ret / WBC: tissue Blood; for KIDNEY_L / KIDNEY_R / KIDNEY_TOTAL: tissue Kidney; for LIVER: tissue Liver; for ALP / ALT / AST / BUN / CRE / Ca / Cl / DBIL / IP / LDH / Na / PL / RALB / TBIL / TC / TG / TP / gamma-GTP: tissue Plasma
[1] = 120 mg/kg, 72 h, dose level Middle, time 3 day
[2] = 120 mg/kg, […], dose level Middle, time 7 day
[3] = 120 mg/kg, […], dose level Middle, time 14 day
[4] = 120 mg/kg, […], dose level Middle, time 28 day
[5] = 400 mg/kg, 72 h, dose level High, time 3 day
[6] = 400 mg/kg, […], dose level High, time 7 day
[7] = 400 mg/kg, […], dose level High, time 14 day
[8] = 400 mg/kg, […], dose level High, time 28 day

CC(C)N(CCC(C(N)=O)(c1ccccc1)c1ccccn1)C(C)C (stereo not given) [DISOPYRAMIDE]
APTT [1]: 20.4 s
Bas [1]: 0%
Eos [1]: 1%
Fbg [1]: 319.6 mg/dL
Ht [1]: 41.1%
Lym [1]: 78.4%
MCHC [1]: 32.2%
MCV [1]: 62.6 fL
Mono [1]: 2.6%
PT [1]: 15.5 s
Plat [1]: 125 x10_4/uL
RBC [1]: 657.8 x10_4/ul
Ret [1]: 5.3%
WBC [1]: 107.5 x10_2/uL
KIDNEY_L [1]: 1 g
KIDNEY_R [1]: 1 g
KIDNEY_TOTAL [1]: 2 g
LIVER [1]: 10.6 g
ALP [1]: 1634.4 IU/L
ALT [1]: 52.4 IU/L
AST [1]: 74 IU/L
BUN [1]: 15.6 mg/dL
CRE [1]: 0.2 mg/dL
Ca [1]: 10.8 mg/dL
Cl [1]: 106.6 meq/L
DBIL [1]: 0 mg/dL
IP [1]: 7.7 mg/dL
LDH [1]: 174.6 IU/L
Na [1]: 142.8 meq/L
PL [1]: 151.2 mg/dL
RALB [1]: 2.9 g/dL
TBIL [1]: 0 mg/dL
TC [1]: 79.2 mg/dL
TG [1]: 111.8 mg/dL
TP [1]: 5.4 g/dL
gamma-GTP [1]: 1.6 IU/L
TERMINAL_BW [2]: 247.4 g
TERMINAL_BW [3]: 313.2 g
TERMINAL_BW [4]: 369.7 g
APTT [2]: 21.5 s
Bas [2]: 0%
Eos [2]: 1%
Fbg [2]: 327.2 mg/dL
Ht [2]: 41%
Lym [2]: 82%
MCHC [2]: 32.6%
MCV [2]: 59.6 fL
Mono [2]: 1.8%
PT [2]: 15.8 s
Plat [2]: 116.6 x10_4/uL
RBC [2]: 688.8 x10_4/ul
Ret [2]: 5.7%
WBC [2]: 102 x10_2/uL
APTT [3]: 23.1 s
Bas [3]: 0%
Eos [3]: 0.8%
Fbg [3]: 331.4 mg/dL
Ht [3]: 41.2%
Lym [3]: 79.8%
MCHC [3]: 32.5%
MCV [3]: 58.9 fL
Mono [3]: 2.4%
PT [3]: 15.5 s
Plat [3]: 117.3 x10_4/uL
RBC [3]: 700.2 x10_4/ul
Ret [3]: 4.5%
WBC [3]: 125.1 x10_2/uL
APTT [4]: 24.7 s
Bas [4]: 0%
Eos [4]: 1%
Fbg [4]: 323.2 mg/dL
Ht [4]: 42.5%
Lym [4]: 79.2%
MCHC [4]: 33.7%
MCV [4]: 55.5 fL
Mono [4]: 2.4%
PT [4]: 15.2 s
Plat [4]: 103.8 x10_4/uL
RBC [4]: 768.2 x10_4/ul
Ret [4]: 2.6%
WBC [4]: 105.7 x10_2/uL
KIDNEY_L [2]: 1.1 g
KIDNEY_R [2]: 1.1 g
KIDNEY_TOTAL [2]: 2.2 g
KIDNEY_L [3]: 1.2 g
KIDNEY_R [3]: 1.3 g
KIDNEY_TOTAL [3]: 2.5 g
KIDNEY_L [4]: 1.4 g
KIDNEY_R [4]: 1.5 g
KIDNEY_TOTAL [4]: 2.9 g
LIVER [2]: 11.4 g
LIVER [3]: 14.2 g
LIVER [4]: 15.6 g
ALP [2]: 1449.8 IU/L
ALT [2]: 48.2 IU/L
AST [2]: 77.4 IU/L
BUN [2]: 16.4 mg/dL
CRE [2]: 0.2 mg/dL
Ca [2]: 10.6 mg/dL
Cl [2]: 106.2 meq/L
DBIL [2]: 0 mg/dL
IP [2]: 7.5 mg/dL
LDH [2]: 167.8 IU/L
Na [2]: 141.6 meq/L
PL [2]: 145 mg/dL
RALB [2]: 3 g/dL
TBIL [2]: 0 mg/dL
TC [2]: 75.8 mg/dL
TG [2]: 107.8 mg/dL
TP [2]: 5.5 g/dL
gamma-GTP [2]: 1.4 IU/L
ALP [3]: 1779.4 IU/L
ALT [3]: 41.4 IU/L
AST [3]: 64.8 IU/L
BUN [3]: 15.6 mg/dL
CRE [3]: 0.1 mg/dL
Ca [3]: 10.6 mg/dL
Cl [3]: 105.6 meq/L
DBIL [3]: 0 mg/dL
IP [3]: 7.1 mg/dL
LDH [3]: 139.4 IU/L
Na [3]: 142.6 meq/L
PL [3]: 146.6 mg/dL
RALB [3]: 3.1 g/dL
TBIL [3]: 0.004 mg/dL
TC [3]: 66 mg/dL
TG [3]: 194 mg/dL
TP [3]: 5.8 g/dL
gamma-GTP [3]: 2 IU/L
ALP [4]: 1162.8 IU/L
ALT [4]: 55 IU/L
AST [4]: 85.2 IU/L
BUN [4]: 17 mg/dL
CRE [4]: 0.2 mg/dL
Ca [4]: 10.7 mg/dL
Cl [4]: 106.4 meq/L
DBIL [4]: 0 mg/dL
IP [4]: 6.7 mg/dL
LDH [4]: 190.2 IU/L
Na [4]: 140.6 meq/L
PL [4]: 151 mg/dL
RALB [4]: 2.9 g/dL
TBIL [4]: 0.012 mg/dL
TC [4]: 79.6 mg/dL
TG [4]: 112.4 mg/dL
TP [4]: 5.9 g/dL
gamma-GTP [4]: 2.2 IU/L
TERMINAL_BW [5]: 214.9 g
APTT [5]: 22.4 s
Bas [5]: 0%
Eos [5]: 0.8%
Fbg [5]: 351.2 mg/dL
Ht [5]: 42.4%
Lym [5]: 73.2%
MCHC [5]: 32.4%
MCV [5]: 62.3 fL
Mono [5]: 2%
PT [5]: 15.6 s
Plat [5]: 129.4 x10_4/uL
RBC [5]: 681.2 x10_4/ul
Ret [5]: 3.3%
WBC [5]: 80.5 x10_2/uL
KIDNEY_L [5]: 0.9 g
KIDNEY_R [5]: 1 g
KIDNEY_TOTAL [5]: 1.9 g
LIVER [5]: 9.5 g
ALP [5]: 1597.6 IU/L
ALT [5]: 40.4 IU/L
AST [5]: 70.2 IU/L
BUN [5]: 12.8 mg/dL
CRE [5]: 0.2 mg/dL
Ca [5]: 10.8 mg/dL
Cl [5]: 107.2 meq/L
DBIL [5]: 0 mg/dL
IP [5]: 7.4 mg/dL
LDH [5]: 182.6 IU/L
Na [5]: 143 meq/L
PL [5]: 137.8 mg/dL
RALB [5]: 2.9 g/dL
TBIL [5]: 0 mg/dL
TC [5]: 74.4 mg/dL
TG [5]: 83.6 mg/dL
TP [5]: 5.5 g/dL
gamma-GTP [5]: 1.4 IU/L
TERMINAL_BW [6]: 229.8 g
TERMINAL_BW [7]: 278.8 g
TERMINAL_BW [8]: 316.5 g
APTT [6]: 23.9 s
Bas [6]: 0%
Eos [6]: 1.2%
Fbg [6]: 346.8 mg/dL
Ht [6]: 41.6%
Lym [6]: 74.4%
MCHC [6]: 33.3%
MCV [6]: 60.2 fL
Mono [6]: 3%
PT [6]: 15.7 s
Plat [6]: 112.7 x10_4/uL
RBC [6]: 691.2 x10_4/ul
Ret [6]: 4.2%
WBC [6]: 123.8 x10_2/uL
APTT [7]: 25.3 s
Bas [7]: 0%
Eos [7]: 1%
Fbg [7]: 316.4 mg/dL
Ht [7]: 41.7%
Lym [7]: 79.4%
MCHC [7]: 32.7%
MCV [7]: 58.7 fL
Mono [7]: 1.8%
PT [7]: 15.2 s
Plat [7]: 102.3 x10_4/uL
RBC [7]: 710.4 x10_4/ul
Ret [7]: 4.4%
WBC [7]: 103 x10_2/uL
APTT [8]: 26 s
Bas [8]: 0%
Eos [8]: 1.2%
Fbg [8]: 345.5 mg/dL
Ht [8]: 44.9%
Lym [8]: 79%
MCHC [8]: 33.7%
MCV [8]: 55.6 fL
Mono [8]: 2.5%
PT [8]: 15.3 s
Plat [8]: 98.6 x10_4/uL
RBC [8]: 808.8 x10_4/ul
Ret [8]: 2.4%
WBC [8]: 105 x10_2/uL
KIDNEY_L [6]: 1 g
KIDNEY_R [6]: 1 g
KIDNEY_TOTAL [6]: 2 g
KIDNEY_L [7]: 1.1 g
KIDNEY_R [7]: 1.2 g
KIDNEY_TOTAL [7]: 2.3 g
KIDNEY_L [8]: 1.2 g
KIDNEY_R [8]: 1.3 g
KIDNEY_TOTAL [8]: 2.5 g
LIVER [6]: 11 g
LIVER [7]: 12.8 g
LIVER [8]: 13.4 g
ALP [6]: 1394 IU/L
ALT [6]: 45 IU/L
AST [6]: 67.2 IU/L
BUN [6]: 14.8 mg/dL
CRE [6]: 0.2 mg/dL
Ca [6]: 10.8 mg/dL
Cl [6]: 105.4 meq/L
DBIL [6]: 0 mg/dL
IP [6]: 8 mg/dL
LDH [6]: 160.8 IU/L
Na [6]: 141.6 meq/L
PL [6]: 170.6 mg/dL
RALB [6]: 2.9 g/dL
TBIL [6]: 0 mg/dL
TC [6]: 80.6 mg/dL
TG [6]: 195.4 mg/dL
TP [6]: 5.4 g/dL
gamma-GTP [6]: 1.4 IU/L
ALP [7]: 1544.2 IU/L
ALT [7]: 44 IU/L
AST [7]: 68 IU/L
BUN [7]: 15.2 mg/dL
CRE [7]: 0.1 mg/dL
Ca [7]: 10.6 mg/dL
Cl [7]: 104.2 meq/L
DBIL [7]: 0 mg/dL
IP [7]: 7.9 mg/dL
LDH [7]: 149.6 IU/L
Na [7]: 143.2 meq/L
PL [7]: 149.6 mg/dL
RALB [7]: 3 g/dL
TBIL [7]: 0.002 mg/dL
TC [7]: 74.4 mg/dL
TG [7]: 147.2 mg/dL
TP [7]: 5.6 g/dL
gamma-GTP [7]: 1.6 IU/L
ALP [8]: 1456 IU/L
ALT [8]: 66 IU/L
AST [8]: 98.2 IU/L
BUN [8]: 17.5 mg/dL
CRE [8]: 0.2 mg/dL
Ca [8]: 10.4 mg/dL
Cl [8]: 106 meq/L
DBIL [8]: 0 mg/dL
IP [8]: 6.6 mg/dL
LDH [8]: 170.5 IU/L
Na [8]: 141.2 meq/L
PL [8]: 152.5 mg/dL
RALB [8]: 3 g/dL
TBIL [8]: 0 mg/dL
TC [8]: 75.5 mg/dL
TG [8]: 165.2 mg/dL
TP [8]: 5.8 g/dL
gamma-GTP [8]: 2 IU/L
